Source: patent US20230087609A1, “USE OF A SOLUBLE GUANYLATE CYCLASE (sGC) STIMULATOR OR OF A COMBINATION OF A sGC STIMULATOR AND AN sGC ACTIVATOR FOR CONDITIONS WHEREIN THE HEME GROUP OF sGC IS OXIDIZED OR WHEREIN sGC IS DEFICIENT IN HEME” (Universiteit Maastricht, priority 2020, published 2023)
“Also recorded” adds a separate entry of the source.

Experiments:
[1] = molecular target: T1, human sGCa1 and mutant sGCβ1H105F (apo-sGC) in Sf9 cells (Homo sapiens, UniProt Q02153, H105F); test: cGMP accumulation in intact Sf9 cells expressing apo-sGC; format: cell-based; conditions: for cGMP formation, sGC stimulator combined with NO donor: 30 micromole/L Bay 41-2272 + 10 micromole/L DETA-NONOate (FIG. 12A, B); for cGMP formation, sGC stimulator only: 30 micromole/L Bay 41-2272 alone (FIG. 12A)
T1 construct: His tag; expressed in transfected cells; host or cells: Sf9 cells co-infected with baculoviruses
T1 sequence (Q02153 1-619 H105F): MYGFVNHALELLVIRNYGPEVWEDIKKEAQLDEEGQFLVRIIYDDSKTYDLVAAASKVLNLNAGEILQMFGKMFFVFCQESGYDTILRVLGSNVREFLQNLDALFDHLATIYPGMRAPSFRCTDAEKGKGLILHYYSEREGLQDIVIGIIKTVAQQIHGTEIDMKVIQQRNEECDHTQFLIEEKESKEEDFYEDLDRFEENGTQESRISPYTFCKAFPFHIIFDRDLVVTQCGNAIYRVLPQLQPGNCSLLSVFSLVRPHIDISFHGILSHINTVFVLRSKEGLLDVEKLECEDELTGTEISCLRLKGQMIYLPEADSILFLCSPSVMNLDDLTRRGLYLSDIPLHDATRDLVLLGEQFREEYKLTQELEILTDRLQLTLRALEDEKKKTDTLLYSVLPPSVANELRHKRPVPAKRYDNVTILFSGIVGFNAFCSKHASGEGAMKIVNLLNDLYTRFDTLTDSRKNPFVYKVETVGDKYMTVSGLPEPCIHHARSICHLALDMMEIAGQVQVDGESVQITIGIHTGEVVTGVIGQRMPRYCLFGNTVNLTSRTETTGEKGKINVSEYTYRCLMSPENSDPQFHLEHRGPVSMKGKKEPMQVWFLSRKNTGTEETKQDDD
T1 sequence (Q02108 1-690 partner): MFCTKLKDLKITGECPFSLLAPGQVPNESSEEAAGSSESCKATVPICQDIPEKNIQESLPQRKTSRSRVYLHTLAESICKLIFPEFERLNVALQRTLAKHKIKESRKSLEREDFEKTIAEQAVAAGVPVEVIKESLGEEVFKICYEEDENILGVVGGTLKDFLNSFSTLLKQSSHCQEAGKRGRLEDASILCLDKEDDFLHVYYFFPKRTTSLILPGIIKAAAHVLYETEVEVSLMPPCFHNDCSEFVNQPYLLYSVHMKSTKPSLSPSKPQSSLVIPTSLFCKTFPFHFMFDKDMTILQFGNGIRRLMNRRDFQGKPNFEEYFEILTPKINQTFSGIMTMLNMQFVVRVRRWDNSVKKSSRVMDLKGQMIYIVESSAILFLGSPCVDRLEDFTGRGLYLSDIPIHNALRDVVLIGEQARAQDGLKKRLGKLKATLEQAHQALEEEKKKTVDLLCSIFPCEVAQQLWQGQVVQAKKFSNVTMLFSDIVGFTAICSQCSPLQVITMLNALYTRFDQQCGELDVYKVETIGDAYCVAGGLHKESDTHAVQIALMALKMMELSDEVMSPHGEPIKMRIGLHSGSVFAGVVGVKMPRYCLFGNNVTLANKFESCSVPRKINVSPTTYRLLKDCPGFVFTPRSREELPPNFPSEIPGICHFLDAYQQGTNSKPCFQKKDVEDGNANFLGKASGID
Protocol: Sf9 cells were co-infected with baculoviruses expressing human sGCa1 and mutant sGCβ1H105F. Forty-eight hours post-infection, the cells were treated with vehicle, NO donor, sGC stimulator, sGC activator or combination in 2 ml final volume of 10^6 cells per ml then the cells were incubated for 10 min at 27° C. The reaction was terminated by the addition of 0.1M of HCl, and cGMP was extracted on ice for 20 min. Cells were then sonicated to ensure complete lysis. The extract was then centrifuged and used for cGMP determination by an ELISA (Enzo Life Sciences).
Forty-eight hours post-infection, the cells were treated with vehicle, NO donor, sGC stimulator, sGC activator or combination in 2 ml final volume of 10^6 cells per ml and subsequently, the cells were incubated for 10 minutes at 27° C. The reaction was terminated by the addition of 0.1M of HCl, and cGMP was extracted on ice for 20 minutes. Cells were then sonicated to ensure complete lysis. The obtained cell extract was then centrifuged and used for cGMP determination by an ELISA. […] In the absence of any of the NO donor, the sGCs or the combination of these compounds, no cGMP synthesis is detected. It is now for the first time shown by the inventors that apo-sGC is still activatable even in the absence of an sGC activator known in the art. The presence of the sGCs facilitates NO binding to a secondary, heme-independent NO binding-site, and in addition, presence of an NO donor acts synergistically, when cGMP production is considered. Due to the invention, it is now made possible to treat patients with an sGCs, resulting in cGMP formation, under conditions wherein treatment with sGC activators has no effect at all or a too small effect, e.g. under conditions of ischemia, neonatal asphyxia, stroke, hypoxia, acute respiratory distress syndrome, asthma, oxidative (organ and/or tissue and/or cell) damage, etc. The invention provides a new treatment modality for these patients, which are often not sensitive (enough) for sGCa treatment. […] C.

[2] = system: Human Brain Microvascular Endothelial Cells (HBMECs); test: Cell viability (MTT) of HBMEC subjected to hypoxia; format: cell-based; conditions: 1 μM; 6 h hypoxia, 24 h reperfusion; versus non-treated cells (FIG. 9)
Protocol: HBMEC (Cell systems, USA) between passage 3 and 9 were cultured to approximately 95% confluence using specialized cell medium (EGM-2 MV BulletKit, Lonza, The Netherlands) enriched with 5% fetal bovine serum before starting the hypoxia period. For hypoxia studies, HBMECs were seeded at specific density (6×10^4 cells/ml) in 12 wells-plate and incubated during 24 h at 37° C. Then, cell medium was replaced with non-FBS containing medium following by 6 h of hypoxia (94.8% N2, 0.2% O2 and 5% CO2) at 37° C. using hypoxia workstations (Ruskin Invivo2 400 station, The Netherlands). The hypoxia period was followed by 24 h of reperfusion in the presence or absence of 1 μM BAY 41-2272. Control cells were exposed to normoxia (75% N2, 20% O2 and 5% CO2) and enriched medium during the hypoxia period.
After 24 h of re-oxygenation period, cell viability was assessed using the colorimetric MTT assay. MTT solution (5 mg/ml) was added to each well (100 μl/ml) and incubated for 2 h at 37° C. The formazan salt formed was solubilized by adding 350 μl/well DMSO. The optical density was measured spectrophotometrically at 540 nm using a micro plate reader. Absorbance values obtained in control cells were set to 100% viability.

- cGMP formation, sGC stimulator combined with NO donor ([1]; listed as Bay 41-2272): synergistic increase in cGMP formation
- cGMP formation, sGC stimulator only ([1]; listed as Bay 41-2272): increase in cGMP formation
Structure (SMILES): Nc1nc(-c2nn(Cc3ccccc3F)c3ncccc23)ncc1C1CC1 [BAY 41-2272, 5-cyclopropyl-2-[1-(2-fluoro-benzyl)-1H-pyrazolo[3,4-b]pyridin-3-yl]-pyrimidin-4-ylamine]
- cGMP formation, sGC stimulator combined with NO donor ([1]; listed as Bay41-2272): more than double amount of cGMP; also recorded: synergistic increase in cGMP formation
- cGMP formation, sGC stimulator only ([1]; listed as Bay41-2272): resulted in cGMP production; also recorded: increase in cGMP formation
- cell viability [2]: significantly increased cell viability
